Experimental data published in patent publication US20180030001A1, “NEW TRIAZINE COMPOUNDS AS PHOTOSTABILIZING AGENTS” (3V Sigma S.P.A., priority 2016, published 2018).

Assay: UVA:UVB ratio (radiation absorbed 320-400 nm vs 290-320 nm) of triazine compounds
Type: physicochemical
Details: versus diethylhexyl butamido triazone and ethylhexyl triazone
Text: Typically, the numerical UV-A/UV-B ratio of these compounds, defined as the ratio between the intensity of the radiation absorbed between 320 nm and 400 nm (UVA fraction) and that absorbed between 290 nm and 320 nm (UVB fraction), is greater than 0.20, and preferably greater than 0.30, whereas in the analogous triazine compounds with a 4-aminobenzoate or 4-aminobenzamide substituent different from the substituents described in Formula (IV), it is below about 0.14.
The UVA:UVB ratio is the ratio between the intensity of the radiation absorbed between 320 nm and 400 nm (UVA fraction) and that absorbed between 290 nm and 320 nm (UVB fraction).

UVA fraction relative to triazine analogues already known	Structure (SMILES)
at least twice as high	CCCCC(CC)COC(=O)c1ccc(NC(=O)c2ccc(Nc3nc(Nc4ccc(C(=O)Nc5ccc(C(=O)OCC(CC)CCCC)cc5)cc4)nc(Nc4ccc(C(=O)NC(C)(C)C)cc4)n3)cc2)cc1 (stereo not drawn) [Compound of formula (V)]
at least twice as high	CCCCC(CC)COC(=O)c1ccc(NC(=O)c2ccc(Nc3nc(Nc4ccc(C(=O)OCC(CC)CCCC)cc4)nc(Nc4ccc(C(=O)OCC(CC)CCCC)cc4)n3)cc2)cc1 (stereo not drawn) [Compound of formula (VII)]
at least twice as high	CCCCC(CC)COC(=O)c1ccc(NC(=O)c2ccc(Nc3nc(Nc4ccc(C(=O)NC(C)(C)C)cc4)nc(Nc4ccc(C(=O)OCC(CC)CCCC)cc4)n3)cc2)cc1 (stereo not drawn) [Compound of formula (VI)]
